Assay results taken from ChEMBL document CHEMBL5608163, “Structure modification of anoplin for fighting resistant bacteria” (Eur J Med Chem, 2024).
≈ marks a conversion by molar mass, not a printed value. Square brackets hold non-standard residues; d marks the D form. Peptide text beside a SMILES is read from it. NMeL = CN[C@@H](CC(C)C)C(=O)O

Tests used:
[1] = tested on: Acinetobacter baumannii; experiment: Antibacterial activity against Acinetobacter baumannii ATCC 19606 assessed as reduction in bacterial growth incubated for 18 hrs by CLSI-based Mueller-Hinton broth dilution method; type: functional
[2] = tested on: Pseudomonas aeruginosa; experiment: Antibacterial activity against Pseudomonas aeruginosa ATCC 27853 assessed as reduction in bacterial growth incubated for 18 hrs by CLSI-based Mueller-Hinton broth dilution method; type: functional
[3] = tested on: Staphylococcus epidermidis; experiment: Antibacterial activity against Staphylococcus epidermidis ATCC 12228 assessed as reduction in bacterial growth incubated for 18 hrs by CLSI-based Mueller-Hinton broth dilution method; type: functional
[4] = tested on: Erythrocyte; experiment: Hemolytic activity in mouse erythrocyte assessed as hemolysis incubated for 1 hr by microplate reader analysis; type: toxicity, cell-based
[5] = tested on: Klebsiella pneumoniae; experiment: Antibacterial activity against Klebsiella pneumoniae ATCC 700603 assessed as reduction in bacterial growth incubated for 18 hrs by CLSI-based Mueller-Hinton broth dilution method; type: functional
[6] = tested on: Staphylococcus aureus; experiment: Antimicrobial activity against Staphylococcus aureus ATCC 25923 assessed as reduction in microbial growth incubated for 18 hrs by CLSI-based Mueller-Hinton broth dilution method; type: functional
[7] = tested on: Bacillus subtilis; experiment: Antibacterial activity against Bacillus subtilis ATCC 23857 assessed as reduction in bacterial growth incubated for 18 hrs by CLSI-based Mueller-Hinton broth dilution method; type: functional
[8] = tested on: Escherichia coli; experiment: Antibacterial activity against Escherichia coli ML-35 ATCC 43837 assessed as reduction in bacterial growth incubated for 18 hrs by CLSI-based Mueller-Hinton broth dilution method; type: functional
[9] = tested on: Bacillus subtilis; experiment: Antimicrobial activity against Bacillus subtilis ATCC 23857 assessed as reduction in microbial growth incubated for 18 hrs by Mueller-Hinton Broth based microdilution assay; type: functional
[10] = tested on: Klebsiella pneumoniae; experiment: Antimicrobial activity against Klebsiella pneumoniae ATCC 700603 assessed as reduction in microbial growth incubated for 18 hrs by Mueller-Hinton Broth based microdilution assay; type: functional
[11] = tested on: Staphylococcus aureus; experiment: Antibacterial activity against Staphylococcus aureus ATCC 25923 assessed as reduction in bacterial growth incubated for 18 hrs by Mueller-Hinton Broth based microdilution assay; type: functional
[12] = tested on: Escherichia coli; experiment: Antibacterial activity against Escherichia coli ATCC 25922 assessed as reduction in bacterial growth incubated for 18 hrs by Mueller-Hinton Broth based microdilution assay; type: functional
[13] = tested on: Pseudomonas aeruginosa; experiment: Antimicrobial activity against Pseudomonas aeruginosa ATCC 27853 assessed as reduction in microbial growth incubated for 18 hrs by Mueller-Hinton Broth based microdilution assay; type: functional

Structure (SMILES) | MIC [1] [µM] | MIC [2] [µM] | MIC [3] [µM] | HC10 [4] [µM] | MIC [5] [µM] | MIC [6] [µM] | MIC [7] [µM] | MIC [8] [µM] | MIC [9] [µM] | MIC [10] [µM] | MIC [11] [µM] | MIC [12] [µM] | MIC [13] [µM]
CCCCCCCCC(=O)NCCCC[C@@H](NC(=O)[C@@H](NC(=O)[C@H](CCCNC(=N)N)NC(=O)[C@@H](CCCCN)NC(=O)[C@H](CC(C)C)NC(=O)[C@H](CC(C)C)NC(=O)CN)[C@@H](C)CC)C(=O)N[C@H](C(=O)N[C@@H](CC(C)C)C(=O)N[C@@H](CC(C)C)C(N)=O)[C@@H](C)O | 8 (≈ 10.4 µg/mL) | 16 (≈ 20.7 µg/mL) | 4 (≈ 5.18 µg/mL) | 256 | 32 (≈ 41.4 µg/mL) | 8 | 2 (≈ 2.59 µg/mL) | 4 (≈ 5.18 µg/mL) | – | – | – | – | –
CCCCCCCCCCC(=O)NCCCC[C@@H](NC(=O)[C@@H](NC(=O)[C@H](CCCNC(=N)N)NC(=O)[C@@H](CCCCN)NC(=O)[C@H](CC(C)C)NC(=O)[C@H](CC(C)C)NC(=O)CN)[C@@H](C)CC)C(=O)N[C@H](C(=O)N[C@@H](CC(C)C)C(=O)N[C@@H](CC(C)C)C(N)=O)[C@@H](C)O | 4 (≈ 5.29 µg/mL) | 4 (≈ 5.29 µg/mL) | 4 (≈ 5.29 µg/mL) | 128 | 8 (≈ 10.6 µg/mL) | 8 | 2 (≈ 2.64 µg/mL) | 4 (≈ 5.29 µg/mL) | – | – | – | – | –
CCCCCCCCCCC(=O)NCCCC[C@@H](NC(=O)[C@H](CC(C)C)NC(=O)[C@H](CC(C)C)NC(=O)CN)C(=O)N[C@@H](CCCNC(=N)N)C(=O)N[C@H](C(=O)N[C@H](CCCCN)C(=O)N[C@H](C(=O)N[C@@H](CC(C)C)C(=O)N[C@@H](CC(C)C)C(N)=O)[C@@H](C)O)[C@@H](C)CC | 16 (≈ 21.1 µg/mL) | 8 (≈ 10.6 µg/mL) | 2 (≈ 2.64 µg/mL) | 256 | 32 (≈ 42.3 µg/mL) | 8 | 4 (≈ 5.29 µg/mL) | 8 (≈ 10.6 µg/mL) | – | – | – | – | –
CCCCC(=O)NCCCC[C@@H](NC(=O)[C@H](CC(C)C)NC(=O)[C@H](CC(C)C)NC(=O)CN)C(=O)N[C@@H](CCCNC(=N)N)C(=O)N[C@H](C(=O)N[C@H](CCCCN)C(=O)N[C@H](C(=O)N[C@@H](CC(C)C)C(=O)N[C@@H](CC(C)C)C(N)=O)[C@@H](C)O)[C@@H](C)CC | > 128 | > 128 | > 128 | > 256 | > 128 | > 128 | > 128 | > 128 | – | – | – | – | –
CCCCC(=O)NCCCC[C@@H](NC(=O)[C@@H](NC(=O)[C@H](CCCNC(=N)N)NC(=O)[C@@H](CCCCN)NC(=O)[C@H](CC(C)C)NC(=O)[C@H](CC(C)C)NC(=O)CN)[C@@H](C)CC)C(=O)N[C@H](C(=O)N[C@@H](CC(C)C)C(=O)N[C@@H](CC(C)C)C(N)=O)[C@@H](C)O | > 128 | 64 (≈ 79.2 µg/mL) | 128 (≈ 158 µg/mL) | > 256 | > 128 | > 128 | 64 (≈ 79.2 µg/mL) | 128 (≈ 158 µg/mL) | – | – | – | – | –
CCCCCCC(=O)NCCCC[C@@H](NC(=O)[C@@H](NC(=O)[C@H](CCCNC(=N)N)NC(=O)[C@@H](CCCCN)NC(=O)[C@H](CC(C)C)NC(=O)[C@H](CC(C)C)NC(=O)CN)[C@@H](C)CC)C(=O)N[C@H](C(=O)N[C@@H](CC(C)C)C(=O)N[C@@H](CC(C)C)C(N)=O)[C@@H](C)O | 32 (≈ 40.5 µg/mL) | 32 (≈ 40.5 µg/mL) | 16 (≈ 20.3 µg/mL) | 256 | 128 (≈ 162 µg/mL) | 128 | 8 (≈ 10.1 µg/mL) | 32 (≈ 40.5 µg/mL) | – | – | – | – | –
CCCCCCCCC(=O)NCCCC[C@@H](NC(=O)[C@H](CC(C)C)NC(=O)[C@H](CC(C)C)NC(=O)CN)C(=O)N[C@@H](CCCNC(=N)N)C(=O)N[C@H](C(=O)N[C@H](CCCCN)C(=O)N[C@H](C(=O)N[C@@H](CC(C)C)C(=O)N[C@@H](CC(C)C)C(N)=O)[C@@H](C)O)[C@@H](C)CC | 32 (≈ 41.4 µg/mL) | 32 (≈ 41.4 µg/mL) | 8 (≈ 10.4 µg/mL) | > 256 | 128 (≈ 166 µg/mL) | 16 | 4 (≈ 5.18 µg/mL) | 32 (≈ 41.4 µg/mL) | – | – | – | – | –
CCCCCCCCCCCCC(=O)NCCCC[C@@H](NC(=O)[C@H](CC(C)C)NC(=O)[C@H](CC(C)C)NC(=O)CN)C(=O)N[C@@H](CCCNC(=N)N)C(=O)N[C@H](C(=O)N[C@H](CCCCN)C(=O)N[C@H](C(=O)N[C@@H](CC(C)C)C(=O)N[C@@H](CC(C)C)C(N)=O)[C@@H](C)O)[C@@H](C)CC | 4 (≈ 5.4 µg/mL) | 4 (≈ 5.4 µg/mL) | 4 (≈ 5.4 µg/mL) | 32 | 8 (≈ 10.8 µg/mL) | 4 | 2 (≈ 2.7 µg/mL) | 4 (≈ 5.4 µg/mL) | – | – | – | – | –
CCCCCCCCCCCCCCC(=O)NCCCC[C@@H](NC(=O)[C@H](CC(C)C)NC(=O)[C@H](CC(C)C)NC(=O)CN)C(=O)N[C@@H](CCCNC(=N)N)C(=O)N[C@H](C(=O)N[C@H](CCCCN)C(=O)N[C@H](C(=O)N[C@@H](CC(C)C)C(=O)N[C@@H](CC(C)C)C(N)=O)[C@@H](C)O)[C@@H](C)CC | 8 (≈ 11 µg/mL) | 16 (≈ 22 µg/mL) | 4 (≈ 5.51 µg/mL) | 32 | 32 (≈ 44.1 µg/mL) | 8 | 4 (≈ 5.51 µg/mL) | 8 (≈ 11 µg/mL) | – | – | – | – | –
CCCCCCC(=O)NCCCC[C@@H](NC(=O)[C@H](CC(C)C)NC(=O)[C@H](CC(C)C)NC(=O)CN)C(=O)N[C@@H](CCCNC(=N)N)C(=O)N[C@H](C(=O)N[C@H](CCCCN)C(=O)N[C@H](C(=O)N[C@@H](CC(C)C)C(=O)N[C@@H](CC(C)C)C(N)=O)[C@@H](C)O)[C@@H](C)CC | > 128 | 64 (≈ 81 µg/mL) | 128 (≈ 162 µg/mL) | > 256 | > 128 | > 128 | 32 (≈ 40.5 µg/mL) | > 128 | – | – | – | – | –
CCCCCCCCCCCCCCCCC(=O)NCCCC[C@@H](NC(=O)[C@H](CC(C)C)NC(=O)[C@H](CC(C)C)NC(=O)CN)C(=O)N[C@@H](CCCNC(=N)N)C(=O)N[C@H](C(=O)N[C@H](CCCCN)C(=O)N[C@H](C(=O)N[C@@H](CC(C)C)C(=O)N[C@@H](CC(C)C)C(N)=O)[C@@H](C)O)[C@@H](C)CC | 16 (≈ 22.5 µg/mL) | 64 (≈ 90 µg/mL) | 64 (≈ 90 µg/mL) | > 16 | 128 (≈ 180 µg/mL) | 32 | 8 (≈ 11.2 µg/mL) | 64 (≈ 90 µg/mL) | – | – | – | – | –
CC[C@H](C)[C@H](NC(=O)[C@H](CCCNC(=N)N)NC(=O)[C@H](CCCCN)NC(=O)[C@H](CC(C)C)NC(=O)[C@H](CC(C)C)N(C)C(=O)CN)C(=O)N[C@@H](CCCCN)C(=O)N[C@H](C(=O)N[C@@H](CC(C)C)C(=O)N[C@@H](CC(C)C)C(N)=O)[C@@H](C)O (H-G[NMeL]LKRIKTLL-NH2) | – | – | – | – | – | – | – | – | 16 | > 128 | > 128 | > 128 | 32
CC[C@H](C)[C@H](NC(=O)[C@H](CCCNC(=N)N)NC(=O)[C@H](CCCCN)NC(=O)[C@H](CC(C)C)NC(=O)[C@H](CC(C)C)N(C)C(=O)CN)C(=O)N[C@@H](CCCCN)C(=O)N[C@H](C(=O)N[C@@H](CC(C)C)C(=O)N(C)[C@@H](CC(C)C)C(N)=O)[C@@H](C)O (H-G[NMeL]LKRIKTL[NMeL]-NH2) | – | – | – | – | – | – | – | – | > 128 | > 128 | > 128 | > 128 | 128
CC[C@H](C)[C@H](NC(=O)[C@H](CCCNC(=N)N)NC(=O)[C@H](CCCCN)NC(=O)[C@H](CC(C)C)N(C)C(=O)[C@H](CC(C)C)N(C)C(=O)CN)C(=O)N[C@@H](CCCCN)C(=O)N[C@H](C(=O)N(C)[C@@H](CC(C)C)C(=O)N(C)[C@@H](CC(C)C)C(N)=O)[C@@H](C)O (H-G[NMeL][NMeL]KRIKT[NMeL][NMeL]-NH2) | – | – | – | – | – | – | – | – | > 128 | > 128 | > 128 | > 128 | 128
